# From paper PMC10495264 (Nature Cell Biology, 2023)
# Read-outs that look alike come from different tables or passages of the source.
# Key:
# [1] = molecular target: T1, TORC1 (Saccharomyces cerevisiae, UniProt P35169); test: Yeast TORC1 kinase activity assays (radioactive IVK, Lst4^Loop substrate); format: biochemical; settings: for In vitro TORC1 kinase assay - CoA compounds, relative activity, Mean: Fig. 8b; for IC50: Lst4^Loop phosphorylation, detection limit 6 mM, n = 3, read-out: IC50 (yeast TORC1 IVK)
# T1 construct: made in house; host or cells: S. cerevisiae strain NIC005 ([RL170-2c] LEU2:GFP-TOR1)
# Description: TORC1 was purified from yeast cells and radioactive IVK assays were performed essentially as previously described. Briefly, kinase reactions (total volume, 30 μl) were performed with 400 ng of purified His6–Lst4^Loop protein and 60 ng TORC1 in kinase buffer (50 mM HEPES NaOH pH 7.5 and 150 mM NaCl). […] All reactions were carried out at 30 °C for 10 min and stopped with the addition of 3×sample buffer (50 mM Tris–HCl pH 6.8, 5% SDS, 0.05% bromophenol blue, 630 mM DTT and 30% glycerol) and heating at 65 °C for 10 min. Proteins were separated by SDS–PAGE and stained in-gel with SYPRO Ruby (S4942, Sigma-Aldrich) as the loading control. Substrate phosphorylation was analysed by autoradiography using a Typhoon FLA 9500 phosphorimager (GE Healthcare) and the raw density of the signals was quantified using the gel analysis tool of ImageJ.
# [2] = molecular target: T2, mTORC1 (Homo sapiens, UniProt P42345); test: Mammalian mTORC1 kinase activity assays (IVK, 4E-BP1 substrate); format: biochemical; settings: for In vitro mTORC1 assay, p-4E-BP1(T37/46)/4E-BP1, Mean: Fig. 8f, relative to 0 mM
# T2 construct: endogenous mTORC1 complexes were purified from HEK293FT cells; endogenous in cells; host or cells: HEK293FT (immunoprecipitation of endogenous mTOR); the 4E-BP1 substrate was made in E. coli BL21 RP
# Description: Following the last wash step with CHAPS IP wash buffer, the beads were washed once with kinase wash buffer (25 mM HEPES pH 7.4 and 20 mM KCl) and excess liquid was removed using a Hamilton syringe—the final bead volume was approximately 10 μl. Kinase reactions were prepared by adding 10 μl of 3×kinase assay buffer (75 mM HEPES KOH pH 7.4, 60 mM KCl and 30 mM MgCl2) to the beads. […] The reactions were incubated at 30 °C for 30 min, and stopped by the addition of one volume of 2×SDS loading buffer and boiling (5 min, 95 °C). […] Signals were quantified using the gel analysis tool of ImageJ and are shown as the phospho-4E-BP1^T37/46/4E-BP1 ratio.
# [3] = tested on: TORC1; test: TORC1 activity in yeast cells, p-Sch9^T737/Sch9 immunoblot; format: cell-based, Saccharomyces cerevisiae; settings: wt Ctrl = 1
# [4] = compound 0.073 mM, normalised to this concentration
# T1 sequence (P35169 whole entry): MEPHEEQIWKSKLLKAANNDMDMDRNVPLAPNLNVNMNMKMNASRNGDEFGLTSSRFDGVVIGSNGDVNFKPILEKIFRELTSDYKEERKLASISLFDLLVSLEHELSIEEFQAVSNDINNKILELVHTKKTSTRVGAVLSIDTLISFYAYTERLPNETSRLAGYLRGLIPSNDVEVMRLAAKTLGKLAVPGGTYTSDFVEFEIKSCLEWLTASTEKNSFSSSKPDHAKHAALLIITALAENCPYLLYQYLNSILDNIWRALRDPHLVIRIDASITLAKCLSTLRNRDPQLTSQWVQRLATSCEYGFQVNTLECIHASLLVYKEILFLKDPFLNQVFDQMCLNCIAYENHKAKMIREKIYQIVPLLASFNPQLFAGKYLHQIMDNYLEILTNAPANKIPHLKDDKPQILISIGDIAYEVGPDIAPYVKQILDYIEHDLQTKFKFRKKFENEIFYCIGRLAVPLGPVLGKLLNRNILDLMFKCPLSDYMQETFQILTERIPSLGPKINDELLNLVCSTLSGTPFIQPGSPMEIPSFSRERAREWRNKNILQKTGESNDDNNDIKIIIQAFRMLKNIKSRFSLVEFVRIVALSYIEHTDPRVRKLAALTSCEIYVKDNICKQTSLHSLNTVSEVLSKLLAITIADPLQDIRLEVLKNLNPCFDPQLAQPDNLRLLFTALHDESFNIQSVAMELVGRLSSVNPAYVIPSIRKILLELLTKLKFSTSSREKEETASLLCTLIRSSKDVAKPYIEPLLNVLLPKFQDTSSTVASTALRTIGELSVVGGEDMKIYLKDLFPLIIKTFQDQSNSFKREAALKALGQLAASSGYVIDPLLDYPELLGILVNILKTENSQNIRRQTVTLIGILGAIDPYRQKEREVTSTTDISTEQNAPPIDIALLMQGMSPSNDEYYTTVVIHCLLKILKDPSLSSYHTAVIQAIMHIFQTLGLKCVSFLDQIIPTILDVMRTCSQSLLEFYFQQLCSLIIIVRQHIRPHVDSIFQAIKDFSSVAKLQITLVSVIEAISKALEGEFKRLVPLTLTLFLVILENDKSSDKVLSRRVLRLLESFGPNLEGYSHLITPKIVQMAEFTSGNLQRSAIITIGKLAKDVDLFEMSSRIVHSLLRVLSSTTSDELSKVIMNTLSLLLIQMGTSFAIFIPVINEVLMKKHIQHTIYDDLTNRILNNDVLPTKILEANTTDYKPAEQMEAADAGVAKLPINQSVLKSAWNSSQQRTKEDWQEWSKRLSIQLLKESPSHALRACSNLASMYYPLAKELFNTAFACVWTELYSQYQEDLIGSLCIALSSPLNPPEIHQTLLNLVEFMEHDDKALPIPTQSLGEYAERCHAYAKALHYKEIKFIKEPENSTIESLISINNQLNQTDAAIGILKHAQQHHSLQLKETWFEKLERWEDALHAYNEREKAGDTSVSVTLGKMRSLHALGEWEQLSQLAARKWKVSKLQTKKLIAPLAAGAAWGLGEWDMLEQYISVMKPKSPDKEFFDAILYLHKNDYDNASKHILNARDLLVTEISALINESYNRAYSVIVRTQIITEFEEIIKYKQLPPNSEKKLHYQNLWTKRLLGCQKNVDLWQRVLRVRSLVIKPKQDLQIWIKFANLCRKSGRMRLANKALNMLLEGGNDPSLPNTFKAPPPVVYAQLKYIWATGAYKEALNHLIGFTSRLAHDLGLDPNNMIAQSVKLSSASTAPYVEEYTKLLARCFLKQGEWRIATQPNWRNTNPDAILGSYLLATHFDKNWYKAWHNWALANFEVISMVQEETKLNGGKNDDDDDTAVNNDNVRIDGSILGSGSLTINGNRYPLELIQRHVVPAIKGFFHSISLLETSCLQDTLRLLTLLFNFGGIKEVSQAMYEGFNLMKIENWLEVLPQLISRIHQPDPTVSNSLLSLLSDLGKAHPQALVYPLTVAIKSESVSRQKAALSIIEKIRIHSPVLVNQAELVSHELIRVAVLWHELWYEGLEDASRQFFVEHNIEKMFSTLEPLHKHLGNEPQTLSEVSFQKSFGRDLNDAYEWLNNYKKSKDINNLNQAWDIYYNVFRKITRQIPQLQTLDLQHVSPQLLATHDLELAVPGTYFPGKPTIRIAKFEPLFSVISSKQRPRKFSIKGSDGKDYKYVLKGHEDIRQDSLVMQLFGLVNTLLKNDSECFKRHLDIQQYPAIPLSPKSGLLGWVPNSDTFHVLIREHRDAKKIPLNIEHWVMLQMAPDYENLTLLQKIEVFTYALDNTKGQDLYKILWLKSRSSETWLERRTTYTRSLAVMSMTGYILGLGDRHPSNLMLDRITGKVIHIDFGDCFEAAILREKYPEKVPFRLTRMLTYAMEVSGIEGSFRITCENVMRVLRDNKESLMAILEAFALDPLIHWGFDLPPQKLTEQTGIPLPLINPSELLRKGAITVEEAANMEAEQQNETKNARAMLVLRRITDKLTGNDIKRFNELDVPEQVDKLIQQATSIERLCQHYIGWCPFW
# T1 sequence (Q08921 whole entry partner): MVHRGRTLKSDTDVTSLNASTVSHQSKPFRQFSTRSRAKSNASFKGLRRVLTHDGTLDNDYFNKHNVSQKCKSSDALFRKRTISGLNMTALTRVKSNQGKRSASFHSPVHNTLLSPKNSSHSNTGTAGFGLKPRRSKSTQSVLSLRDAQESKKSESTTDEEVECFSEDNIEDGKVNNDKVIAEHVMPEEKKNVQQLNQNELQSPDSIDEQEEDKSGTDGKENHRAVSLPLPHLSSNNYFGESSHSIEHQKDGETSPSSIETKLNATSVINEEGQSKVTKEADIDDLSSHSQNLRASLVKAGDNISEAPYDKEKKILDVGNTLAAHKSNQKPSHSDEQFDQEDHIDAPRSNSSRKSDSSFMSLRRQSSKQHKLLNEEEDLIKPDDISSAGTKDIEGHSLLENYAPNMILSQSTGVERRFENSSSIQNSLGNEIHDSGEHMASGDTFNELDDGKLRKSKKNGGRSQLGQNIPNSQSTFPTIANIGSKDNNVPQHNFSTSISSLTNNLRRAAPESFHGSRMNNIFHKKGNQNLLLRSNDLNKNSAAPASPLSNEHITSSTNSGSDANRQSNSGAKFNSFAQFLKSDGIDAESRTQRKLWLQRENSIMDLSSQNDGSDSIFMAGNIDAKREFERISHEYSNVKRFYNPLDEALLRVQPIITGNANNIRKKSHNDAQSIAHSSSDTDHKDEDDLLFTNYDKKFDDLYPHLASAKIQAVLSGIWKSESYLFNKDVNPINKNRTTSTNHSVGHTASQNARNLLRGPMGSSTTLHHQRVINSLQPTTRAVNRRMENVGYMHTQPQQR
# T1 sequence (P38873 whole entry partner): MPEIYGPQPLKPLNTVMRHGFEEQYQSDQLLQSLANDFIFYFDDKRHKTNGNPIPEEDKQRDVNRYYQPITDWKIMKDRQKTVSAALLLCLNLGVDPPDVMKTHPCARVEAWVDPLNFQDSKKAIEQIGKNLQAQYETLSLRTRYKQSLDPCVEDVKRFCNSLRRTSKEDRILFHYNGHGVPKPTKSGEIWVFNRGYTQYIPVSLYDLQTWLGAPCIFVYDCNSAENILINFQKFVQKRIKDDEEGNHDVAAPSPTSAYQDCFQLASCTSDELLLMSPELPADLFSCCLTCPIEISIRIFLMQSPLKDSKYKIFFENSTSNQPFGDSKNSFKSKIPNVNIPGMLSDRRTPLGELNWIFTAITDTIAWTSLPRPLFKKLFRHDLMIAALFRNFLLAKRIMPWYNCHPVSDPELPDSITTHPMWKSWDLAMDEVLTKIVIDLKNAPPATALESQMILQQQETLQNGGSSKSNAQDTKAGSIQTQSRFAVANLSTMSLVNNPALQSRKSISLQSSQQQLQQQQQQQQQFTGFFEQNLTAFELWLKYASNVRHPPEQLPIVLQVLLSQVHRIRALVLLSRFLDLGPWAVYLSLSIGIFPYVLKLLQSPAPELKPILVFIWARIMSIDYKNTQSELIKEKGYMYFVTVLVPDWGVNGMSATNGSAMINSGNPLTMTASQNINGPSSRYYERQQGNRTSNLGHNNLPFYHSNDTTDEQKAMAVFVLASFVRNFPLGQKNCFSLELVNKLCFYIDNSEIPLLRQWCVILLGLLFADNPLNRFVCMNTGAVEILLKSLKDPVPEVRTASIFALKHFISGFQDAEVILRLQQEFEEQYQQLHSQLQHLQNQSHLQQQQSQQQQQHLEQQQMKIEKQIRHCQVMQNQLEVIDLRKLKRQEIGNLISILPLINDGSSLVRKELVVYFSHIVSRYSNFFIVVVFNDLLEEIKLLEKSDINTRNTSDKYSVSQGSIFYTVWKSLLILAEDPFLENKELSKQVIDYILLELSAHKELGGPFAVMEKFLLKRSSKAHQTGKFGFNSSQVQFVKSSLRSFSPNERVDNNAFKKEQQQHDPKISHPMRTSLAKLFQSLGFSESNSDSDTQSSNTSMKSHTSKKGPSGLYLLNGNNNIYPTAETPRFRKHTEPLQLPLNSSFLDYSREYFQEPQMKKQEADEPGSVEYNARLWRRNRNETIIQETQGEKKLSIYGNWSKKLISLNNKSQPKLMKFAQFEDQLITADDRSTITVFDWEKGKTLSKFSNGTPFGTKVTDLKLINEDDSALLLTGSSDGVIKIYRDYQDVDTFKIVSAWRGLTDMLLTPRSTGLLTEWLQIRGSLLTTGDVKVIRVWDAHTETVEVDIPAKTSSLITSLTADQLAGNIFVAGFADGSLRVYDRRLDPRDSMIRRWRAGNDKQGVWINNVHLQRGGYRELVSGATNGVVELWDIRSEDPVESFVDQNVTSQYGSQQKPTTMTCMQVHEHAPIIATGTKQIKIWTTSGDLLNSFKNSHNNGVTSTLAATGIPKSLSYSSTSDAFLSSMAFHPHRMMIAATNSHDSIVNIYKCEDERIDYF
# T1 sequence (P41318 whole entry partner): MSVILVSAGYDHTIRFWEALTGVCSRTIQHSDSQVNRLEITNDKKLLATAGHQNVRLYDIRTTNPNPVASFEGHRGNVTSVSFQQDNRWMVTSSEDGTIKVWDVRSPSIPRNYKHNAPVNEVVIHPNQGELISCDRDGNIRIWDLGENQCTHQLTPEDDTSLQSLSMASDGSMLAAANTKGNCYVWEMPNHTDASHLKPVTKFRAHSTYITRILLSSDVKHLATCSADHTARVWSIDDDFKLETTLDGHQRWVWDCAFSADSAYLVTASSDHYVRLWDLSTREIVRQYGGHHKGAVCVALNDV
smiles,measurement,setting,value
CC(=O)SCCNC(=O)CCNC(=O)[C@H](O)C(C)(C)COP(=O)(O)OP(=O)(O)OC[C@H]1O[C@@H](n2cnc3c(N)ncnc32)[C@H](O)[C@@H]1OP(=O)(O)O [acetyl-CoA],"In vitro TORC1 kinase assay - CoA compounds, relative activity, Mean",[1]; [4],1
same,"In vitro TORC1 kinase assay - CoA compounds, relative activity, Mean",[1]; compound 0.22 mM,0.9698
same,"In vitro TORC1 kinase assay - CoA compounds, relative activity, Mean",[1]; compound 2 mM,0.7319
same,"In vitro TORC1 kinase assay - CoA compounds, relative activity, Mean",[1]; compound 6 mM,0.5296
same,IC50,[1],2880 µM
same,"In vitro mTORC1 assay, p-4E-BP1(T37/46)/4E-BP1, Mean",[2]; compound 0.01 mM,0.9483
same,"In vitro mTORC1 assay, p-4E-BP1(T37/46)/4E-BP1, Mean",[2]; compound 0.05 mM,0.8033
same,"In vitro mTORC1 assay, p-4E-BP1(T37/46)/4E-BP1, Mean",[2]; compound 0.1 mM,0.8597
same,"In vitro mTORC1 assay, p-4E-BP1(T37/46)/4E-BP1, Mean",[2]; compound 0.5 mM,0.644
same,"In vitro mTORC1 assay, p-4E-BP1(T37/46)/4E-BP1, Mean",[2]; compound 1 mM,0.6848
same,"In vitro mTORC1 assay, p-4E-BP1(T37/46)/4E-BP1, Mean",[2]; compound 2.5 mM,0.4704
same,"In vitro mTORC1 assay, p-4E-BP1(T37/46)/4E-BP1, Mean",[2]; compound 5 mM,0.3906
same,IC50,"[2]; mTORC1 immunoprecipitated from HEK293FT, recombinant 4E-BP1, 500 μM ATP",1030 µM
"NC(=O)CC[C@H](N)C(=O)O [Gln, glutamine]","p-Sch9(T737)/Sch9, Mean","[3]; Acc1-GFP yeast, nitrogen-starved then +Gln 1 min, ED Fig. 2e",0.2777
same,"p-Sch9(T737)/Sch9, Mean","[3]; Acc1-GFP yeast, nitrogen-starved then +Gln 2 min, ED Fig. 2e",0.2567
same,"p-Sch9(T737)/Sch9, Mean","[3]; Acc1-GFP yeast, nitrogen-starved then +Gln 5 min, ED Fig. 2e",0.172
same,"p-Sch9(T737)/Sch9, Mean","[3]; acc1E392K yeast, nitrogen-starved then +Gln 1 min, ED Fig. 1g",0.2184
same,"p-Sch9(T737)/Sch9, Mean","[3]; acc1E392K yeast, nitrogen-starved then +Gln 2 min, ED Fig. 1g",0.4052
same,"p-Sch9(T737)/Sch9, Mean","[3]; acc1E392K yeast, nitrogen-starved then +Gln 5 min, ED Fig. 1g",0.172
same,"p-Sch9(T737)/Sch9, Mean","[3]; acc1E392K yeast, nitrogen-starved then +Gln 15 min, ED Fig. 1g",0.07897
same,"p-Sch9(T737)/Sch9, Mean","[3]; acc1E392K,S1157A yeast, nitrogen-starved then +Gln 1 min, ED Fig. 1g",0.2597
same,"p-Sch9(T737)/Sch9, Mean","[3]; acc1E392K,S1157A yeast, nitrogen-starved then +Gln 2 min, ED Fig. 1g",0.4125
same,"p-Sch9(T737)/Sch9, Mean","[3]; acc1E392K,S1157A yeast, nitrogen-starved then +Gln 5 min, ED Fig. 1g",0.1831
same,"p-Sch9(T737)/Sch9, Mean","[3]; acc1E392K,S1157A yeast, nitrogen-starved then +Gln 15 min, ED Fig. 1g",0.0777
same,"p-Sch9(T737)/Sch9, Mean","[3]; acc1S1157A yeast, nitrogen-starved then +Gln 1 min, ED Fig. 1g",0.08981
same,"p-Sch9(T737)/Sch9, Mean","[3]; acc1S1157A yeast, nitrogen-starved then +Gln 1 min, ED Fig. 2e",0.1842
same,"p-Sch9(T737)/Sch9, Mean","[3]; acc1S1157A yeast, nitrogen-starved then +Gln 1 min, Fig. 2e",0.5322
same,"p-Sch9(T737)/Sch9, Mean","[3]; acc1S1157A yeast, nitrogen-starved then +Gln 2 min, ED Fig. 1g",0.2298
same,"p-Sch9(T737)/Sch9, Mean","[3]; acc1S1157A yeast, nitrogen-starved then +Gln 2 min, ED Fig. 2e",0.2323
same,"p-Sch9(T737)/Sch9, Mean","[3]; acc1S1157A yeast, nitrogen-starved then +Gln 2 min, Fig. 2e",0.5731
same,"p-Sch9(T737)/Sch9, Mean","[3]; acc1S1157A yeast, nitrogen-starved then +Gln 5 min, ED Fig. 1g",0.1433
same,"p-Sch9(T737)/Sch9, Mean","[3]; acc1S1157A yeast, nitrogen-starved then +Gln 5 min, ED Fig. 2e",0.1614
same,"p-Sch9(T737)/Sch9, Mean","[3]; acc1S1157A yeast, nitrogen-starved then +Gln 5 min, Fig. 2e",0.2159
same,"p-Sch9(T737)/Sch9, Mean","[3]; acc1S1157A yeast, nitrogen-starved then +Gln 15 min, ED Fig. 1g",0.0801
same,"p-Sch9(T737)/Sch9, Mean","[3]; acc1S1157A yeast, nitrogen-starved then +Gln 15 min, Fig. 2e",0.1147
same,"p-Sch9(T737)/Sch9, Mean","[3]; acc1S1157A-GFP yeast, nitrogen-starved then +Gln 1 min, ED Fig. 2e",0.2949
same,"p-Sch9(T737)/Sch9, Mean","[3]; acc1S1157A-GFP yeast, nitrogen-starved then +Gln 2 min, ED Fig. 2e",0.2508
same,"p-Sch9(T737)/Sch9, Mean","[3]; acc1S1157A-GFP yeast, nitrogen-starved then +Gln 5 min, ED Fig. 2e",0.1919
same,"p-Sch9(T737)/Sch9, Mean","[3]; wt yeast, nitrogen-starved then +Gln 1 min, n = 3, ED Fig. 2e",0.3518
same,"p-Sch9(T737)/Sch9, Mean","[3]; wt yeast, nitrogen-starved then +Gln 1 min, n = 4, ED Fig. 1g",0.1938
same,"p-Sch9(T737)/Sch9, Mean","[3]; wt yeast, nitrogen-starved then +Gln 2 min, Fig. 2e",0.8468
same,"p-Sch9(T737)/Sch9, Mean","[3]; wt yeast, nitrogen-starved then +Gln 2 min, n = 3, ED Fig. 2e",0.2928
same,"p-Sch9(T737)/Sch9, Mean","[3]; wt yeast, nitrogen-starved then +Gln 2 min, n = 4, ED Fig. 1g",0.4107
same,"p-Sch9(T737)/Sch9, Mean","[3]; wt yeast, nitrogen-starved then +Gln 5 min, Fig. 2e",0.2605
same,"p-Sch9(T737)/Sch9, Mean","[3]; wt yeast, nitrogen-starved then +Gln 5 min, n = 3, ED Fig. 2e",0.215
same,"p-Sch9(T737)/Sch9, Mean","[3]; wt yeast, nitrogen-starved then +Gln 5 min, n = 4, ED Fig. 1g",0.1743
same,"p-Sch9(T737)/Sch9, Mean","[3]; wt yeast, nitrogen-starved then +Gln 15 min, Fig. 2e",0.1412
same,"p-Sch9(T737)/Sch9, Mean","[3]; wt yeast, nitrogen-starved then +Gln 15 min, n = 4, ED Fig. 1g",0.07833
"CC(C)(COP(=O)(O)OP(=O)(O)OC[C@H]1O[C@@H](n2cnc3c(N)ncnc32)[C@H](O)[C@@H]1OP(=O)(O)O)[C@@H](O)C(=O)NCCC(=O)NCCS [CoA, coenzyme A]","In vitro TORC1 kinase assay - CoA compounds, relative activity, Mean",[1]; [4],1
same,"In vitro TORC1 kinase assay - CoA compounds, relative activity, Mean",[1]; compound 0.22 mM,1.005
same,"In vitro TORC1 kinase assay - CoA compounds, relative activity, Mean",[1]; compound 2 mM,0.9479
same,"In vitro TORC1 kinase assay - CoA compounds, relative activity, Mean",[1]; compound 6 mM,0.6805
same,IC50,[1],> 6000 µM
same,IC50,[2],> 5000 µM
same,"In vitro mTORC1 assay, p-4E-BP1(T37/46)/4E-BP1, Mean",[2]; compound 0.01 mM,0.8503
same,"In vitro mTORC1 assay, p-4E-BP1(T37/46)/4E-BP1, Mean",[2]; compound 0.05 mM,0.8507
same,"In vitro mTORC1 assay, p-4E-BP1(T37/46)/4E-BP1, Mean",[2]; compound 0.1 mM,1.093
same,"In vitro mTORC1 assay, p-4E-BP1(T37/46)/4E-BP1, Mean",[2]; compound 0.5 mM,0.8643
same,"In vitro mTORC1 assay, p-4E-BP1(T37/46)/4E-BP1, Mean",[2]; compound 1 mM,1.061
same,"In vitro mTORC1 assay, p-4E-BP1(T37/46)/4E-BP1, Mean",[2]; compound 2.5 mM,0.926
same,"In vitro mTORC1 assay, p-4E-BP1(T37/46)/4E-BP1, Mean",[2]; compound 5 mM,0.889
